Laboratory results as given in patent US4988730A, “Diphenkylpropylamines for the therapy of heart disease” (Chinoin Gyogyszer es Vegyeszeti Termekek Gyar RT, priority 1986, dated 1991).
Read-outs that look alike come from different tables or passages of the source.

Tests used:
[1] = anti-ischaemic protective action after an oral dose; type: in vivo
[2] = ventricular extrasystoles developing under the effect of a coronary occlusion; type: in vivo; conditions: as opposed to fendiline
[3] = "two-step" coronary occlusion of Harris, extrasystolic activity in conscious dogs; type: in vivo; conditions: for extrasystolic activity following by 24 hours the two-step coronary occlusion: conscious dogs, KHL-8430 2 mg/kg intravenous
[4] = tested on: auricular and ventricular muscle of the isolated cat heart; test: antiarrhythmic action in auricular and ventricular muscle of the isolated cat heart
[5] = myocardial ischaemia induced by coronary occlusion in dogs; type: in vivo; conditions: versus fendiline
Text: The myocardial ischaemia induced by coronary occlusion in dogs [Szekeres e al.: J. Pharm.

[6] = vasopressin angina of rats (acute coronary failure induced by vasopressin); type: in vivo; conditions: for ED50: Rattus norvegicus
Text: Thus, such derivatives forming a more preferred group of the compounds of the formula (I), wherein R^1 is as defined above, R^2 means a methyl group, R^3 is halogen and R^4, R^5 and R^6 stand for hydrogen, show significant antianginal effects. In these derivatives, the halogen may be fluorine, chlorine or bromine. […] Thus, the above compound of the invention is about 42 times as effective as fendiline under the same conditions.
(§1) In the case of the vasopressin angina of rats [Papp and Szekeres: Arch. int. Pharmacodyn. 160, 147 (1966)], the antianginal activity measured at the 2nd minute following the intravenous administration or at the 60th minute after oral administration, respectively, as well as the intravenous and oral acute toxicity values, the therapeutic indices and the quotient of the therapeutic ratio of KHL-8430 to that of fendiline as measured in rats are summarized in Table 1.

[7] = haemodynamic actions (blood pressure, heart rate, left ventricle contractility); type: in vivo; conditions: i.v.; KHL-8430, verapamil and fendiline
[8] = haemodynamic study on dogs during coronary occlusion; type: in vivo; conditions: in comparison with fendiline, verapamil or nifedipine
[9] = vasopressin-induced angina, comparison of calcium antagonists (table 2); type: in vivo; conditions: for BP/Antianginal ED50 / ratio (row drawing 12; DP/dt max/antianginal by arithmetic): ratio, table 2
[10] = acute toxicity in rats (LD50, therapeutic indices); type: in vivo; conditions: for LD50 / selectivity ratio: rat, in vivo; for LD50: acute toxicity; for selectivity ratio: LD50 and ED50 in vasopressin angina
Text: as §1

[11] = antiarrhythmic ("antifibrillatory") action, fibrillation threshold; type: in vivo; conditions: table 2
[12] = 1 h, vasopressin angina, 60th minute after oral administration, read-out: ED50, antianginal activity, oral
[13] = iv, 2 min, vasopressin angina, 2nd minute following i.v. administration, read-out: ED50, antianginal activity, intravenous
[14] = iv, rats, i.v., read-out: LD50, intravenous
[15] = iv, rats, i.v., read-out: therapeutic index, intravenous (head is drawing 4)
[16] = rats, oral, read-out: LD50, oral
[17] = rats, oral, read-out: therapeutic index, oral (head is drawing 5)
[18] = iv, 2 min, i.v. at 2 minutes before inducing the angina by i.v. 2 NE/kg of vasopressin, read-out: ED50, acute coronary failure induced by vasopressin

Row | Compound | extrasystolic activity following by 24 hours the two-step coronary occlusion [3] | ED50 [6, 12] [mg/kg] | ED50 [6, 13] [mg/kg] | BP/Antianginal ED50 [9] | ratio (row drawing 12; DP/dt max/antianginal by arithmetic) [9] | LD50 [10, 14] [mg/kg] | selectivity ratio [10, 15] | LD50 [10, 16] [mg/kg] | selectivity ratio [10, 17] | ratio (row drawing 11; BP/FFT by arithmetic) [11] | ratio (row drawing 13; DP/dt max/FFT by arithmetic) [11] | ED50 [6, 18] [mg/kg] | also measured
1 | COc1ccc(C(C)NCCC(c2ccccc2)c2ccccc2)cc1OC.Cl (centres unmarked) [KHL-8430, 2-(3,4-Dimethoxyphenyl)-6,6-diphenyl-3-azahexane hydrochloride] | significantly lowered | 8.4 | 0.34 | 3.75 | 10.00 | 16 | 47.1 | 1400 | 167 | 1.25 | 3.33 | – | anti-ischaemic protective action after an oral dose [1]: very smooth; restraint of ventricular extrasystoles under coronary occlusion [2]: surprisingly capable to restrain the ventricular extrasystoles; rhythm disturbances of the heart ([3]; dog, in vivo): in a great part of the cases, the rhythm disturbances of the heart could be suspended; frequency of the extrasystoles, oral administration ([3]; oral administration): diminished in a dose-dependent manner and very significantly; antiarrhythmic action, auricular and ventricular muscle of the isolated cat heart ([4]; compared with mexiletine): high antiarrhythmic action, which equals the effect of mexiletine; antiarrhythmic action relative to fendiline, verapamil and other calcium antagonists ([4]; isolated cat heart): by far surpassing that of fendiline, verapamil and other calcium antagonists; decrease of myocardial ischaemia induced by coronary occlusion ([5]; intravenous or oral): decreased more strongly and with a much longer duration; strength and duration of the effect on the ischaemic state induced by coronary occlusion [5]: highly exceed that of fendiline; strength and duration of the effect on the angina induced by vasopressin ([6]; versus fendiline): highly exceed that of fendiline; haemodynamical therapeutic index [7]: by far the best among the three calcium antagonists studied; arterial blood pressure during coronary occlusion [8]: only a little lowered; heart rate during coronary occlusion [8]: not decreased; prolongation of the activation time in the ischaemic area [8]: significantly restrained; Quotient of the therapeutic ratios, intravenous ([10]; rats, i.v., therapeutic ratio of KHL-8430 to that of fendiline): 8.89; Quotient of the therapeutic ratios, oral ([10]; rats, oral, therapeutic ratio of KHL-8430 to that of fendiline): 4.17; toxicity on intravenous and oral administrations ([10]; versus fendiline): less toxic than the reference compound
2 | COc1ccc(CCN(C)CCCC(C#N)(c2ccc(OC)c(OC)c2)C(C)C)cc1OC (centres unmarked) [verapamil] | no significant effect | – | – | 2.0 | 0.7 | – | – | – | – | 0.13 | 0.04 | – | ED50 ([9]; iv, read-out: ED50, Vasopressin-induced angina): 0.1 mg/kg
3 | CC(NCCC(c1ccccc1)c1ccccc1)c1ccc(Cl)cc1.Cl (centres unmarked) [2-(4-chlorophenyl)-6,6-diphenyl-3-azahexane hydrochloride] | – | – | – | – | – | – | – | – | – | – | – | 0.054 | times as effective as fendiline ([6]; vasopressin angina, i.v., same conditions): about 42 times
4 | CC(NCCC(c1ccccc1)c1ccccc1)c1ccccc1 (stereo not drawn) [Fendiline, N-(3,3-diphenylpropyl)-α-methylbenzylamine, reference compound] | no significant effect | 20 | 2.3 | 0.62 | 0.41 | 12.2 | 5.3 | 800 | 40 | 0.26 | 0.175 | 2.3 | –
